Measurements as given in patent US20090239877A1, “NOVEL 1,2,4-TRIAZOLE DERIVATIVES AND PROCESS OF MANUFACTURING THEREOF” (AETERNA ZENTARIS GmbH, priority 2008, published 2009).

How the values were obtained:
human GHS-R 1a [1] = molecular target: T1, human GHS-R 1a (Homo sapiens, UniProt Q92847); assay: GHS-R 1a receptor-ligand binding assay (membrane preparations from transfected LLC PK-1 cells); design: expressed in transfected cells; details: displacement of 125I-His9-ghrelin; plasma membranes of LLC PK-1 cells transiently transfected with human GHS-R 1a; mean of at least two independent experiments in triplicates
T1 sequence (Q92847 whole entry): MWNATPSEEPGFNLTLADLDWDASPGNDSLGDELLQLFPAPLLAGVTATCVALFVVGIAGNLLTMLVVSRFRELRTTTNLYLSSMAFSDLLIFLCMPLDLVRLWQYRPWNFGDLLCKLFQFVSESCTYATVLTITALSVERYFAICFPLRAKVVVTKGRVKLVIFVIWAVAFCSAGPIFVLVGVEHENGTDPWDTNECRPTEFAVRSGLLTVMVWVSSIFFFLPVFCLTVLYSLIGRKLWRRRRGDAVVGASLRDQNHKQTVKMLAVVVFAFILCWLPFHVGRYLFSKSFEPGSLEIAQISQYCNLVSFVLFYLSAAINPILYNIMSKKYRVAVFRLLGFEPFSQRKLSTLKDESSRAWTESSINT
Procedure: II) GHS-R 1a Receptor-Ligand Binding Assay (Membrane Preparations from Transfected LLC PK-1 Cells)
The GHS-R 1a receptor binding/affinity studies were performed according to Guerlavais et al. (J. Med. Chem. 2003, 46: 1191-1203).
Isolated plasma membranes from LLC PK-1 cells, a renal epithelial cell line originally derived from porcine kidneys (ECACC No. 86121112) (10 μg of protein), that were transiently transfected with human GHS-R 1a cDNA (Guerlavais et al., J. Med. Chem. 2003, 46: 1191-1203), were incubated in homogenization buffer HB [50 mM Tris (pH 7.3), 5 mM MgCl2, 2.5 mM EDTA, and 30 μg/mL bacitracin (Sigma)] for 60 min at 25° C. (steady-state conditions) with […] ^125I-His^9-ghrelin (Amersham) in the presence or absence of competing compounds (compounds of the invention).
Nonspecific binding was defined using an excess (10^−6 M) of ghrelin. The binding reaction was stopped by addition of 4 mL of ice-cold HB followed by rapid filtration over Whatman GP/C filters presoaked with 0.5% polyethyleneimine to prevent excessive binding of radioligand to the filters. Filters were rinsed three times with 3 mL of icecold wash buffer [50 mM Tris (pH 7.3), 10 mM MgCl2, 2.5 mM EDTA, and 0.015% (w/v) X-100 Triton], and the radioactivity bound to membranes was measured in a gammacounter (Kontron Analytical Gamma Matic, Automatic gamma counting system).
The concentration of test compounds required to inhibit radiolabelled ghrelin binding by 50% (IC50) was determined by fitting competitive binding curves using non-linear regression (PRISM 3.0, Graph Pad San Diego, USA).
In the following table 2 results obtained for selected compounds of the invention are presented in comparison to an example of the prior art. IC50 values given are the mean of at least two independent experiments performed in triplicates.

human GHS-R 1a [2] = molecular target: T1, human GHS-R 1a; assay: In vitro intracellular calcium release assay using human GHS-R 1a transfected CHO cells; assay type: cell-based; design: expressed in transfected cells; host or cells: CHO-K1 Chinese hamster ovary cells (ATCC No. CCL-61), transient transfection by electroporation; details: for EC50: agonists, dose-response curve of intracellular calcium release; for activation at 1 µM: intracellular calcium release, compound at 10^-6 M, relative to basal level (0%) and 1 μM ghrelin (100%)
Procedure: The ability to properly activate the receptors is assessed for any compound of the invention by comparing the degree of activation (increase of intracellular calcium) of GHS-R 1a by the compound to be tested (at 10^−6 M concentration) to the degree of activation (increase of intracellular calcium) of GHS-R 1a by 10^−6 M ghrelin (100%) and to the basal level (0%). Such assessment can be readily performed by the skilled artisan due to his expert knowledge. The output is a percentage value for each compound to be tested. […]
III) In Vitro Intracellular Calcium Release Assay Using Human GHS-R 1a Transfected CHO Cells
The potential of the compounds of the invention to modulate GHS receptor activity was assessed by an in vitro intracellular Calcium release assay employing CHO cells that were transfected with human GHS-R 1a.
Release of intracellular calcium or inhibition thereof was measured using the fluorescent calcium indicator assay (FLIPR) and Fluo-4 AM.
CHO cells (CHO-KI Chinese Hamster Ovary cell line, ATCC No. CCL-61) were transiently transfected with human GHS-R 1a cDNA by electroporation and plated into 96-well black bottom plates (Corning 3603) (80,000 cells/well). Transient transfections were performed using the Easyject Optima Electroporator (Equibio), according to the manufacturer's instructions.
Transfected cells were grown in Dulbecco's modified Eagle's medium without phenol red, supplemented with 10% (v/v) non-essential amino acids, […] glutamine and streptomycin-penicillin (250 μg/ml-250 u/ml) (all purchased from Cambrex) at 37° C., 5% CO2 in a humidified atmosphere for 24 hours.
After incubation, transfected cells were washed with 150 μl Buffer A [Hanks' balanced salt solution (Sigma H-6648), 0.5% (v/v) BSA (Sigma A-7906), 20 mM CaCl2, 2.5 mM probenecid (pH 7.4, dissolved in 1 M NaOH) (Sigma P-8761)] and were then loaded with fluorescent calcium indicator Fluo-4 AM (10^−6 M) (Interchim UP72972) prepared in Buffer A, additionally containing 0.06% pluronic acid (Molecular probes P-6867) (a […] detergent which facilitates Fluo-4AM ester loading). (Loading: 100 μl per well of Buffer A containing 120 μl/ml Pluronic Acid and 1 μM Fluo-4AM was added to the cells).
After loading with Fluo-4 AM, transfected cells were incubated for 1 hour in the dark at 37° C.
Compounds to be tested were dissolved in Buffer A in triplicates at a concentration of 10^−6 M and distributed into another 96-well plate (Fisher Labosi A1210500).
Following incubation, excess Fluo-4AM was removed, 100 μl of Buffer A was added to each well at room temperature and immediately removed by aspiration. This was then repeated, before adding 50 μl Buffer A to each well.
Transfected cells were further incubated room temperature for 30 min to allow complete de-esterification of intracellular Fluo-4AM esters.
Subsequently, both plates, the black-bottom plate containing transfected cells and the microtiter plate containing the compounds to be tested, were then placed into a temperature-regulated (25° C.) FlexStation machine (benchtop scanning fluorometer Flex Station II, Molecular Devices, Sunnyvale, Calif., USA) for fluorescence output measurements.
Basal fluorescence output from the transfected cells was measured for 15 sec and then 50 μl of the compounds to be tested were automatically distributed into the wells containing the transfected cells. The fluorescence output was then recorded for a further 45 sec.
Excitation and emission wavelengths were 485 nm and 525 nm, respectively. Basal fluorescence intensity of Fluo-4AM-loaded transfected cells without compounds to be tested varied between 800-1200 arbitrary units, whereas maximal fluorescence output of dye-loaded transfected cells upon incubation with the compounds to be tested varied between 5000-7000 arbitrary units and was equivalent to that achieved by stimulation of dye-loaded transfected cells with 10^−6 M ghrelin. […]

Row | SMILES | IC50 (human GHS-R 1a [1]) | EC50 (human GHS-R 1a [2]) | activation at 1 µM (human GHS-R 1a [2])
1 | COc1ccc(Cn2c(CCc3ccccc3)nnc2[C@@H](Cc2c[nH]c3ccccc23)NC(=O)c2ccccc2)c(OC)c1 [Compound 5, N-((R)-1-(4-(2,4-dimethoxybenzyl)-5-phenethyl-4H-1,2,4-triazol-3-yl)-2-(1H-indol-3-yl)ethyl)benzamide] | 11.8 nM | 16 nM | 31%
2 | O=C(N[C@H](Cc1c[nH]c2ccccc12)c1nnc(Cc2ccccc2)n1Cc1ccc(Cl)c(Cl)c1)[C@@H]1CCCN1 [Compound 35, (2S)-N-((R)-1-(4-(3,4-dichlorobenzyl)-5-benzyl-4H-1,2,4-triazol-3-yl)-2-(1H-indol-3-yl)ethyl)pyrrolidine-2-carboxamide] |  | 17 nM | 60%
3 | O=C(N[C@H](Cc1c[nH]c2ccccc12)c1nnc(CCc2c[nH]c3ccccc23)n1Cc1cccc2ccccc12)C1CCNCC1 [Compound 17, N-((R)-1-(5-(2-(1H-indol-3-yl)ethyl)-4-((naphthalen-1-yl)methyl)-4H-1,2,4-triazol-3-yl)-2-(1H-indol-3-yl)ethyl)piperidine-4-carboxamide] | 4 nM | 2.4 nM | 94%
4 | NC1(C(=O)N[C@H](Cc2c[nH]c3ccccc23)c2nnc(CCc3c[nH]c4ccccc34)n2Cc2cccc3ccccc23)CCNCC1 [Compound 48, N-((R)-1-(5-(2-(1H-indol-3-yl)ethyl)-4-((naphthalen-1-yl)methyl)-4H-1,2,4-triazol-3-yl)-2-(1H-indol-3-yl)ethyl)-4-aminopiperidine-4-carboxamide] | 12 nM | 3.9 nM | 100%
5 | O=C(N[C@H](Cc1c[nH]c2ccccc12)c1nnc(CCc2c[nH]c3ccccc23)n1Cc1cccc2ccccc12)c1ccccn1 [Compound 18, N-((R)-1-(5-(2-(1H-indol-3-yl)ethyl)-4-((naphthalen-1-yl)methyl)-4H-1,2,4-triazol-3-yl)-2-(1H-indol-3-yl)ethyl)picolinamide] | 5.3 nM |  | 1%
6 | COc1ccc(Cn2c(CCc3cc4ccccc4[nH]3)nnc2[C@@H](Cc2c[nH]c3ccccc23)NC(=O)C2(N)CCNCC2)cc1 [Compound 3, N-((R)-1-(5-(2-(1H-indol-2-yl)ethyl)-4-(4-methoxybenzyl)-4H-1,2,4-triazol-3-yl)-2-(1H-indol-3-yl)ethyl)-4-aminopiperidine-4-carboxamide] | 16 nM | 4.4 nM | 106%
7 | O=C(N[C@H](Cc1c[nH]c2ccccc12)c1nnc(CCc2c[nH]c3ccccc23)n1Cc1cccc2ccccc12)c1cnccn1 [Compound 32, N-((R)-1-(5-(2-(1H-indol-3-yl)ethyl)-4-((naphthalen-1-yl)methyl)-4H-1,2,4-triazol-3-yl)-2-(1H-indol-3-yl)ethyl)pyrazine-2-carboxamide] | 122 nM |  | 0%
8 | NC1(C(=O)N[C@H](Cc2c[nH]c3ccccc23)c2nnc(CCc3ccccc3)n2Cc2cccc3ccccc23)CCNCC1 [Compound 49, N-((R)-2-(1H-indol-3-yl)-1-(4-((naphthalen-1-yl)methyl)-5-phenethyl-4H-1,2,4-triazol-3-yl)ethyl)-4-aminopiperidine-4-carboxamide] | 44.5 nM | 10.1 nM | 100%
9 | COc1ccc(Cn2c(CCc3ccccc3)nnc2[C@@H](Cc2c[nH]c3ccccc23)NC(=O)C2(N)CCNCC2)c(OC)c1 [Compound 10, N-((R)-1-(4-(2,4-dimethoxybenzyl)-5-phenethyl-4H-1,2,4-triazol-3-yl)-2-(1H-indol-3-yl)ethyl)-4-aminopiperidine-4-carboxamide] | 1.3 nM | 2 nM | 100%
10 | COc1ccc(Cn2c(CCc3ccccc3)nnc2[C@@H](Cc2cccc3ccccc23)NC(=O)C2CCCN2)cc1 (stereo partly drawn) [Compound 80, N-((R)-1-(4-(4-methoxybenzyl)-5-phenethyl-4H-1,2,4-triazol-3-yl)-2-(naphthalen-1-yl)ethyl)pyrrolidine-2-carboxamide] | 18.8 nM |  | 
